Results reported in patent US10633419B2, “Immunomodulators” (BRISTOL-MYERS SQUIBB COMPANY, priority 2014, dated 2020).
Starred links: 1 amine or outer side, 2 acyl side, 3 side chain; linkers in the order of their positions; H or OH if unused. Positions of bridges follow the written chain, without caps; N, C: chain ends. Non-standard residues stand in square brackets, D forms with d. Residues, ends and D or L forms follow the SMILES beside them. Groups on a side chain read outwards from the residue. ξ: configuration not given here. *: point of attachment. X12 = O=C(O)CCCCCCCCCCCCCCCCCCC(=O)N[C@@H](CCC(=O)NCCCOCCOCCOCCCN*)C(=O)O; Dap(Nα-HOOC(CH2)16CO)OH = O=C(O)CCCCCCCCCCCCCCCCC(=O)N[C@@H](CN*)C(=O)O; X6 = O=C(O)CCCCCCCCCCCCCCCCC(=O)N[C@@H](CCC(=O)NCCCOCCOCCOCCCN*)C(=O)O; X18 = O=C(O)CCCCCCCCCCCCCCC(=O)N[C@@H](CC(=O)NCCCOCCOCCOCCCN*)C(=O)O; X11 = O=C(O)CCCCCCCCCCCCC(=O)N[C@@H](CCC(=O)NCCCOCCOCCOCCCN*)C(=O)O; Trp(1-CH2COOH) = N[C@@H](Cc1cn(CC(=O)O)c2ccccc12)C(=O)O; X24 = O=C(C[C@@H](Cc1ccc(O)cc1)C(=O)[*:1])C[*:2]; C18 diacid = O=C(O)CCCCCCCCCCCCCCCCC(=O)*; Phe(4-F) = N[C@@H](Cc1ccc(F)cc1)C(=O)O; γGlu = O=C(O)[C@H](CCC(=O)[*:2])N[*:1]; X19 = O=C(C1C[C@H](O)CN1[*:1])[*:2]; ξPro(4R-OH) = O=C(O)C1C[C@@H](O)CN1; PEG6 = NCCOCCOCCOCCOCCOCCOCCC(=O)O; Hyp = O=C(O)[C@@H]1C[C@@H](O)CN1; X32 = O=C(O)CCCCCCCCCCCCCCCCCCN*; dHyp = O=C(O)[C@H]1C[C@H](O)CN1; Undecanoyl = CCCCCCCCCCC(=O)*; NMeNle = CCCC[C@H](NC)C(=O)O; Pip = O=C(O)[C@@H]1CCCCN1; NMeA = CN[C@@H](C)C(=O)O; Dab = NCC[C@H](N)C(=O)O; Dap = NC[C@H](N)C(=O)O

Target: T1, PD-L1 (Homo sapiens, UniProt Q9NZQ7)
T1 construct: hPDL1(19-239)-TVMV-His; made in house; host or cells: HEK293T
Assay: PD-1/PD-L1 Homogenous Time-Resolved Fluorescence (HTRF) binding assay (PD-1-Ig/PD-L1-His)
Details: not given
Procedure, shortened: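 HTRF competition in dPBS with 0.1% BSA and 0.05% Tween-20: 20 nM PD-1-Ig added after 15 min compound pre-incubation with 10 nM PD-L1-His, then another 15 min. Signal (665/620 nm) after 30 min with APC anti-His (20 nM) and Eu anti-Ig (1 nM).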

T1 sequence (Q9NZQ7 with tags, fused parts or gaps): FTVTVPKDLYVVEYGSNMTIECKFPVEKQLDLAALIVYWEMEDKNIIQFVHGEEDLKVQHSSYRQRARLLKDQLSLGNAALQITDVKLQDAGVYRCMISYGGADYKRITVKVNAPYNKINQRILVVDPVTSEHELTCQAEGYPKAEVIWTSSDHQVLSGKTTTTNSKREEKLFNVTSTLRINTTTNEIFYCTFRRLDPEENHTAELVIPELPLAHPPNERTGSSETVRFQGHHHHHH

| Compound | IC50 [nM] |
| --- | --- |
| CCCC[C@H]1C(=O)N(C)[C@@H](CCCC)C(=O)N[C@@H](CCC(=O)O)C(=O)N[C@H](C(=O)NCC(=O)N[C@@H](Cc2cn(CCCCCNC(=O)CCC(=O)Oc3c(C)c(C)c4c(c3C)CC[C@@](C)(CCC[C@H](C)CCC[C@H](C)CCCC(C)C)O4)nn2)C(=O)N[C@@H](CC(=O)O)C(N)=O)CSCC(=O)N[C@@H](Cc2ccc(O)cc2)C(=O)N(C)[C@@H](C)C(=O)N[C@@H](CC(=O)O)C(=O)N2CCC[C@H]2C(=O)N[C@@H](Cc2c[nH]cn2)C(=O)N[C@@H](CCCCN)C(=O)N2C[C@H](O)C[C@H]2C(=O)N[C@@H](Cc2c[nH]c3ccccc23)C(=O)N[C@@H](CCCCN)C(=O)N[C@@H](Cc2c[nH]c3ccccc23)C(=O)N1C [Example 14056] | 100 to 1600 |

Same assay, conditions: inhibition of PD-1-Ig binding to PD-L1-TVMV-His; value given as number; read-out: HTRF IC50

| Compound | IC50 [nM] |
| --- | --- |
| CCCC[C@H]1C(=O)N(C)[C@@H](CCCC)C(=O)N[C@@H](CC(C)C)C(=O)N[C@H](C(=O)NCC(=O)N[C@@H](CC(=O)O)C(=O)N[C@@H](CC(=O)NCCCOCCOCCOCCCNC(=O)C[C@H](NC(=O)CCCCCCCCCCCCCCC(=O)O)C(=O)O)C(=O)O)CSCC(=O)N[C@@H](Cc2ccc(O)cc2)C(=O)N(C)[C@@H](C)C(=O)N[C@@H](CC(N)=O)C(=O)N2CCC[C@@H]2C(=O)N[C@@H](CN)C(=O)N[C@@H](CC(C)C)C(=O)N2C[C@@H](O)C[C@@H]2C(=O)N[C@@H](Cc2c[nH]c3ccccc23)C(=O)N[C@@H](CCN)C(=O)N[C@@H](Cc2cn(CC(=O)O)c3ccccc23)C(=O)N1C [Example 11240] ({CH2CO}-Y[NMeA]N[dP][Dap]L[dHyp]W[Dab][Trp(1-CH2COOH)][NMeNle][NMeNle]LCGDD(X18)-OH; thioether N-14) | 10 |

Same assay, conditions: inhibition of PD-1-Ig binding to PD-L1-TVMV-His; value given as range class; read-out: HTRF IC50

| Compound | IC50 [nM] |
| --- | --- |
| CCCC[C@H]1C(=O)N(C)[C@@H](CCCC)C(=O)N[C@@H](CC(C)C)C(=O)N[C@H](C(=O)NCC(=O)N[C@@H](CCC(=O)NCCCOCCOCCOCCCNC(=O)C[C@H](NC(=O)CCCCCCCCCCCCCCC(=O)O)C(=O)O)C(=O)O)CSCC(=O)N[C@@H](Cc2ccc(O)cc2)C(=O)N(C)[C@@H](C)C(=O)N[C@@H](CC(N)=O)C(=O)N2CCC[C@@H]2C(=O)N[C@@H](CN)C(=O)N[C@@H](CC(C)C)C(=O)N2C[C@@H](O)CC2C(=O)N[C@@H](Cc2c[nH]c3ccccc23)C(=O)N[C@@H](CCN)C(=O)N[C@@H](Cc2cn(CC(=O)O)c3ccccc23)C(=O)N1C (stereo partly drawn) [Example 11243] ({CH2CO}-Y[NMeA]N[dP][Dap]L[X19]W[Dab][Trp(1-CH2COOH)][NMeNle][NMeNle]LCGE(X18)-OH; thioether N-14) | 100 to 1600 |
| CCCC[C@H]1C(=O)N(C)[C@@H](CCCC)C(=O)N[C@@H](CC(C)C)C(=O)N[C@H](C(=O)NCC(=O)N[C@@H](CC(=O)O)C(=O)N[C@@H](CCC(=O)NCCCOCCOCCOCCCNC(=O)CC[C@H](NC(=O)CCCCCCCCCCCCCCCCCCC(=O)O)C(=O)O)C(=O)O)CSCC(=O)N[C@@H](Cc2ccc(O)cc2)C(=O)N(C)[C@@H](C)C(=O)N[C@@H](CC(N)=O)C(=O)N2CCC[C@H]2C(=O)N[C@@H](CN)C(=O)N[C@@H](CC(C)C)C(=O)N2C[C@H](O)CC2C(=O)N[C@@H](Cc2c[nH]c3ccccc23)C(=O)N[C@@H](CCN)C(=O)N[C@@H](Cc2cn(CC(=O)O)c3ccccc23)C(=O)N1C (stereo partly drawn) [Example 11249] ({CH2CO}-Y[NMeA]NP[Dap]L[ξPro(4R-OH)]W[Dab][Trp(1-CH2COOH)][NMeNle][NMeNle]LCGDE(X12)-OH; thioether N-14) | 0.3 to 9.9 |
| CCCC[C@H]1C(=O)N(C)[C@@H](CCCC)C(=O)N[C@@H](CC(C)C)C(=O)N[C@H](C(=O)NCCOCCOCCOCCOCCOCCOCCC(=O)NC[C@H](NC(=O)CCCCCCCCCCCCCCCCC(=O)O)C(=O)O)CSCC(=O)N[C@@H](Cc2ccc(O)cc2)C(=O)N(C)[C@@H](C)C(=O)N[C@@H](CC(N)=O)C(=O)N2CCC[C@H]2C(=O)N[C@@H](CN)C(=O)N[C@@H](CC(C)C)C(=O)N2C[C@H](O)C[C@H]2C(=O)N[C@@H](Cc2c[nH]c3ccccc23)C(=O)N[C@@H](CCN)C(=O)N[C@@H](Cc2cn(CC(=O)O)c3ccccc23)C(=O)N1C [Example 11180] ({CH2CO}-Y[NMeA]NP[Dap]L[Hyp]W[Dab][Trp(1-CH2COOH)][NMeNle][NMeNle]LC[PEG6]-{Dap(Nα-HOOC(CH2)16CO)OH}; thioether N-14) | 10 to 99 |
| CCCC[C@H]1C(=O)N(C)[C@@H](CCCC)C(=O)N[C@@H](CC(C)C)C(=O)N[C@H](C(=O)NCC(=O)N[C@@H](CCC(=O)O)C(=O)NCCCOCCOCCOCCCNC(=O)CC[C@H](NC(=O)CCCCCCCCCCCCCCCCC(=O)O)C(=O)O)CSCC(=O)N[C@@H](Cc2ccc(F)cc2)C(=O)N2CCCC[C@H]2C(=O)N[C@@H](CC(=O)O)C(=O)N2CCC[C@H]2C(=O)N[C@@H](CN)C(=O)N[C@@H](CCC(=O)O)C(=O)N2C[C@H](O)C[C@H]2C(=O)N[C@@H](Cc2c[nH]c3ccccc23)C(=O)N[C@@H](CCN)C(=O)N[C@@H](Cc2cn(CC(=O)O)c3ccccc23)C(=O)N1C [Example 11265] ({CH2CO}-[Phe(4-F)][Pip]DP[Dap]E[Hyp]W[Dab][Trp(1-CH2COOH)][NMeNle][NMeNle]LCGE-X6; thioether N-14) | 10 to 99 |
| CCCC[C@H]1C(=O)N(C)[C@@H](CCCC)C(=O)N[C@@H](CC(C)C)C(=O)N[C@H](C(=O)NCC(=O)NCC(=O)NCCCCCCCCCCCCCCCCCCC(=O)O)CSCC(=O)N[C@@H](Cc2ccc(O)cc2)C(=O)N(C)[C@@H](C)C(=O)N[C@@H](CC(N)=O)C(=O)N2CCC[C@H]2C(=O)N[C@@H](CN)C(=O)N[C@@H](CC(C)C)C(=O)N2C[C@H](O)C[C@H]2C(=O)N[C@@H](Cc2c[nH]c3ccccc23)C(=O)N[C@@H](CCN)C(=O)N[C@@H](Cc2cn(CC(=O)O)c3ccccc23)C(=O)N1C [Example 11193] ({CH2CO}-Y[NMeA]NP[Dap]L[Hyp]W[Dab][Trp(1-CH2COOH)][NMeNle][NMeNle]LCGG-X32; thioether N-14) | 10 to 99 |
| CCCCCCCCCCC(=O)NCCCC[C@H](NC(=O)CNC(=O)[C@@H]1CSCC(=O)N[C@@H](Cc2ccc(O)cc2)C(=O)N(C)[C@@H](C)C(=O)N[C@@H](CC(N)=O)C(=O)N2CCC[C@H]2C(=O)N[C@@H](Cc2cnc[nH]2)C(=O)N[C@@H](CCC(=O)O)C(=O)N2C[C@H](O)C[C@H]2C(=O)N[C@@H](Cc2c[nH]c3ccccc23)C(=O)N[C@@H](CCN)C(=O)N[C@@H](Cc2c[nH]c3ccccc23)C(=O)N(C)[C@@H](CCCC)C(=O)N(C)[C@@H](CCCC)C(=O)N[C@@H](CCN)C(=O)N1)C(N)=O [Example 11007] ({CH2CO}-Y[NMeA]NPHE[Hyp]W[Dab]W[NMeNle][NMeNle][Dab]CGK(Undecanoyl)-NH2; thioether N-14) | 10 to 99 |
| CCCCCCCCCCC(=O)NCCCC[C@H](NC(=O)CCOCCOCCOCCOCCOCCOCCNC(=O)[C@@H]1CSCC(=O)C[C@@H](Cc2ccc(O)cc2)C(=O)N(C)[C@@H](C)C(=O)N[C@@H](CC(N)=O)C(=O)N2CCC[C@H]2C(=O)N[C@@H](Cc2cnc[nH]2)C(=O)N[C@@H](CCC(=O)O)C(=O)N2C[C@H](O)C[C@H]2C(=O)N[C@@H](Cc2c[nH]c3ccccc23)C(=O)N[C@@H](CCN)C(=O)N[C@@H](Cc2cn(CC(=O)O)c3ccccc23)C(=O)N(C)[C@@H](CCCC)C(=O)N(C)[C@@H](CCCC)C(=O)N[C@@H](CC(C)C)C(=O)N1)C(N)=O [Example 11012] ([NMeA]NPHE[Hyp]W[Dab][Trp(1-CH2COOH)][NMeNle][NMeNle]LC[PEG6]K(Undecanoyl)-NH2; linker N-13 via X24) | 10 to 99 |
| CCCC[C@H]1C(=O)N(C)[C@@H](CCCC)C(=O)N[C@@H](CC(C)C)C(=O)N[C@H](C(=O)NCCCOCCOCCOCCCNC(=O)C[C@H](NC(=O)CCCCCCCCCCCCCCC(=O)O)C(=O)O)CSCC(=O)N[C@@H](Cc2ccc(O)cc2)C(=O)N(C)[C@@H](C)C(=O)N[C@@H](CC(N)=O)C(=O)N2CCC[C@@H]2C(=O)N[C@@H](CN)C(=O)N[C@@H](CC(C)C)C(=O)N2C[C@@H](O)C[C@@H]2C(=O)N[C@@H](Cc2c[nH]c3ccccc23)C(=O)N[C@@H](CCN)C(=O)N[C@@H](Cc2cn(CC(=O)O)c3ccccc23)C(=O)N1C [Example 11242] ({CH2CO}-Y[NMeA]N[dP][Dap]L[dHyp]W[Dab][Trp(1-CH2COOH)][NMeNle][NMeNle]LC-X18; thioether N-14) | 10 to 99 |
| CCCC[C@H]1C(=O)N(C)[C@@H](CCCC)C(=O)N[C@@H](CC(C)C)C(=O)N[C@H](C(=O)NCC(=O)N[C@@H](CNC(=O)CC[C@H](NC(=O)CCCCCCCCCCCCCCCCC(=O)O)C(=O)O)C(=O)O)CSCC(=O)N[C@@H](Cc2ccc(O)cc2)C(=O)N2CCCC[C@H]2C(=O)N[C@@H](CC(N)=O)C(=O)N2CCC[C@H]2C(=O)N[C@@H](CN)C(=O)N[C@@H](CC(C)C)C(=O)N2C[C@H](O)C[C@H]2C(=O)N[C@@H](Cc2c[nH]c3ccccc23)C(=O)N[C@@H](CCN)C(=O)N[C@@H](Cc2cn(CC(=O)O)c3ccccc23)C(=O)N1C [Example 13152] ({CH2CO}-Y[Pip]NP[Dap]L[Hyp]W[Dab][Trp(1-CH2COOH)][NMeNle][NMeNle]LCG[Dap]([γGlu-C18 diacid])-OH; thioether N-14) | 0.3 to 9.9 |
| CCCC[C@H]1C(=O)N(C)[C@@H](CCCC)C(=O)N[C@@H](CC(C)C)C(=O)N[C@H](C(=O)N[C@@H](CC(=O)O)C(=O)N[C@@H](CCC(=O)NCCCOCCOCCOCCCNC(=O)CC[C@H](NC(=O)CCCCCCCCCCCCC(=O)O)C(=O)O)C(=O)O)CSCC(=O)N[C@@H](Cc2ccc(O)cc2)C(=O)N(C)[C@@H](C)C(=O)N[C@@H](CC(N)=O)C(=O)N2CCC[C@H]2C(=O)N[C@@H](CN)C(=O)N[C@@H](CC(C)C)C(=O)N2C[C@H](O)C[C@H]2C(=O)N[C@@H](Cc2c[nH]c3ccccc23)C(=O)N[C@@H](CCN)C(=O)N[C@@H](Cc2cn(CC(=O)O)c3ccccc23)C(=O)N1C [Example 11261] ({CH2CO}-Y[NMeA]NP[Dap]L[Hyp]W[Dab][Trp(1-CH2COOH)][NMeNle][NMeNle]LCDE(X11)-OH; thioether N-14) | 0.3 to 9.9 |
